Test system: termites
Assay: Repellency to termites (termites moving through the treated area)
Assay type: in vivo
Conditions: termites do not detect the active ingredient in the treated area and readily move through it, picking up a lethal dose
Excerpt: […], and in particular deltamethrin, an α-cyano-pyrethroid, are the preferred active ingredients of the insecticide formulation of this invention and provides the formulation with its insecticidal activity. The International Union of Pure and Applied Chemistry name for Deltamethrin is (S)-α-cyano-3-phenoxybenzyl (1R)-cis-3-(2,2-dibromovinyl)-2,2-dimethylcyclopropane-carboxylate. Deltamethrin is produced by AgrEvo Environmental Health of 95 Chestnut Ridge Road, Montvale, N.J., 07645. The concentration of deltamethrin in the insecticide formulation may range from 0.01 to 2% by weight of the insecticide without propellant, but is preferably from 0.01 to 0.5% by weight of the insecticide without propellant and most preferably from 0.10 to 0.30% by weight of the insecticide without the propellant.

## CC1(C)[C@H](C(=O)O[C@H](C#N)c2cccc(Oc3ccccc3)c2)[C@@H]1C=C(Br)Br [deltamethrin, (S)-α-cyano-3-phenoxybenzyl (1R)-cis-3-(2,2-dibromovinyl)-2,2-dimethylcyclopropane-carboxylate]
  Repellency to termites: non-repellant to termites
